Test results published in publication PMC8394412, “Identification and Characterization of Cannabidiol as an OX1R Antagonist by Computational and In Vitro Functional Validation” (Biomolecules, 2021).

Molecular target: T1, orexin 1 receptor (OX1R) (Homo sapiens, UniProt O43613)
T1 construct: gene HCRTR1
T1 sequence (O43613 1-425): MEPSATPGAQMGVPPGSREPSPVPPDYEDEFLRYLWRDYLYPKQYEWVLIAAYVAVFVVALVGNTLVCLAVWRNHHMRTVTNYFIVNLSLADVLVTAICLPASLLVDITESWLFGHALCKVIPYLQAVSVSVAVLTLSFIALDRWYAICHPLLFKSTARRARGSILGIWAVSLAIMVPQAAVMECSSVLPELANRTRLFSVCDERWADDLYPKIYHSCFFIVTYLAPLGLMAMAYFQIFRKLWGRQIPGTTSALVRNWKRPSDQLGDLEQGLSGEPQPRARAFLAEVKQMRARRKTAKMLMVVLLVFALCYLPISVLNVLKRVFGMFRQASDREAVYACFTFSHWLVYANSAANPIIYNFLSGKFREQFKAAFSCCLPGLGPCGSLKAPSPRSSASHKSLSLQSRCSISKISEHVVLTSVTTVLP
Experiment: […]orexin-A radioligand displacement on OX1R-CHO membranes; functional Ca2+ antagonism IC50 […]
Format: binding

`C=C(C)[C@@H]1CCC(C)=C[C@H]1c1c(O)cc(CCCCC)cc1O` [CBD, cannabidiol] gave a Ki of 1580 ± 200 nM.
